From article PMC4666608, “Metabolic Profiling of Chicken Embryos Exposed to Perfluorooctanoic Acid (PFOA) and Agonists to Peroxisome Proliferator-Activated Receptors” (PLoS ONE, 2015)
Marks after values point to notes of the source that are not given here.

Test system: chicken embryos
Test: Metabolic profiling of blood plasma (GC-MS, LC-MS, OPLS-DA)
Type: in vivo, Gallus gallus domesticus
Conditions: for Mean concentration relative to control, feature Win006_C03 / Mean concentration relative to control, feature Win011_C02 (Isoleucine) / Mean concentration relative to control, feature Win027_C13 / Mean concentration relative to control, feature Win031_C03 (Citric acid) / Mean concentration relative to control, feature Win034_C08 (Tyrosine) / Mean concentration relative to control, feature Win034_C09 (Tyrosine) / Mean concentration relative to control, feature Win039_C07 / Mean concentration relative to control, feature Win043_C02 (Cystathionine) / Mean concentration relative to control, feature Win061_C01 / Mean concentration relative to control, feature Win066_C03 / Mean concentration relative to control, feature Win088_C02: GC
Description: Controls were injected with 20 μL vehicle only (DMSO).
Plasma was collected and stored at -70°C.
Metabolites in allantoic fluid and blood plasma were analyzed using gas chromatography-mass spectrometry (GC-MS) and liquid chromatography-mass spectrometry (LC-MS) as described in S1 Methods. Prior to GC-MS and LC-MS analysis, allantoic fluid (100 μL) and blood plasma (50 μL) were extracted. To each sample, 900 μL (allantoic fluid) or 450 μL (blood plasma) of extraction buffer (90/10 v/v methanol:water) including all internal standards were added. Standards for GC-MS were proline, succinic acid, glutamic acid, salicylic acid, alpha-ketoglutarate, putrescine, myristic acid, hexadecanoic acid, cholesterol, and sucrose. Standards for LC-MS were Val-Tyr-Val, Leu-enkephalin, sulfadimethoxine and reserpine. Samples were homogenized by shaking in a bead mill at a frequency of 30 Hz for 3 minutes and proteins were precipitated at +4°C on ice. The samples were centrifuged at +4°C, 14000 rpm, for 10 min. Then, 200 μL supernatant was transferred to a GC microvial and 200 μL was transferred to an LC microvial, and solvents were evaporated. Samples from the four replicate experiments were analyzed using in chronological order and within each replicate experiment the run order of the individual samples was randomized.
Multivariate statistical analyses of metabolite profiles were performed using the software package SIMCA-P version 13.0 (Umetrics, Umeå, Sweden). Data was centered and scaled to variance 1 (UV scaling) prior to modelling. To reduce unintended systematic variation caused by sample processing and instrument drift, GC-MS and LC-MS metabolite amounts (expressed as the area under the chromatographic peak) were normalized by Orthogonal Partial Least Squares analysis (O2PLS) prior to multivariate data analysis. O2PLS finds common (predictive) and unique (orthogonal) variation in two data matrices. If applied to find the common variation between the data matrix containing the measured metabolite concentrations and a matrix containing only the internal standards, the only common (predictive) variation expected is due to the unintended systematic variation. By deleting the contribution of the predictive latent variables, that variation can be removed from the data. Models obtained after this normalization contain in general less latent variables, and this simplification helps when deciding on the number of latent variables to be used. Following normalization, GC-MS and LC-MS data were analyzed together. Initially, a global Principal Component Analysis (PCA) was performed to get an overview of groups and trends and to identify outliers. Projections to latent structures by means of Orthogonal Partial Least Squares Discriminant Analysis (OPLS-DA) was used to model the relationship between the X-matrix (metabolite concentrations) and the Y matrix (class, i.e. exposure group or sex), and to find x-variables that were related to class belonging. OPLS-DA is a supervised prediction and regression method that rotates the projection plane to find the maximum covariance between the data and the class assignment. All groups were first analyzed together in a 5-class OPLS-DA and then each exposure group was analyzed against the control group in a 2-class OPLS-DA. Sex differences were analyzed both using the whole data set and in each group separately using 2-class OPLS-DA, with females and males as the two classes. Only variables with 80% or more nonzero values were included in the statistical models. […] The validity of each model was also checked using CV-ANOVA (ANOVA of the cross-validated residuals). A significance level of p < 0.05 was used. For each model, R ^2 X, R ^2 Y and Q ^2 values were calculated, where R ^2 X is a measure of the fraction of x variation modeled in the extracted latent variables, R ^2 Y is a measure of the fraction of y variation modeled and Q ^2 is an estimate of the predictive ability of the model and is calculated by cross-validation. […]

## O=C(O)C(F)(F)C(F)(F)C(F)(F)C(F)(F)C(F)(F)C(F)(F)C(F)(F)F [PFOA, perfluorooctanoic acid]
PFOA 50
  Mean concentration relative to control, feature Win006_C03: 1.1*
  Mean concentration relative to control, feature Win011_C02 (Isoleucine): 1.1
  Mean concentration relative to control, feature Win027_C13: 0.9
  Mean concentration relative to control, feature Win031_C03 (Citric acid): 1
  Mean concentration relative to control, feature Win034_C08 (Tyrosine): 1.1
  Mean concentration relative to control, feature Win034_C09 (Tyrosine): 1.1
  Mean concentration relative to control, feature Win039_C07: 1.3
  Mean concentration relative to control, feature Win043_C02 (Cystathionine): 1.1
  Mean concentration relative to control, feature Win061_C01: 0.9
  Mean concentration relative to control, feature Win066_C03: 1
  Mean concentration relative to control, feature Win088_C02: 1
PFOA 250
  Mean concentration relative to control, feature Win006_C03: 1.1*
  Mean concentration relative to control, feature Win011_C02 (Isoleucine): 1.1*
  Mean concentration relative to control, feature Win027_C13: 0.8*
  Mean concentration relative to control, feature Win031_C03 (Citric acid): 1
  Mean concentration relative to control, feature Win034_C08 (Tyrosine): 1
  Mean concentration relative to control, feature Win034_C09 (Tyrosine): 1.0
  Mean concentration relative to control, feature Win039_C07: 1.3
  Mean concentration relative to control, feature Win043_C02 (Cystathionine): 1.1
  Mean concentration relative to control, feature Win061_C01: 0.9
  Mean concentration relative to control, feature Win066_C03: 1
  Mean concentration relative to control, feature Win088_C02: 1
LC, PFOA 50
  Mean concentration relative to control, feature 118.0284@2.480333 (C4H6O4): 1
  Mean concentration relative to control, feature 122.0486@0.675613: 1.1
  Mean concentration relative to control, feature 126.0428@1.2278157 (Thymine): 1.1
  Mean concentration relative to control, feature 146.0362@0.7772238: 1.1
  Mean concentration relative to control, feature 159.0686@1.1608156: 1
  Mean concentration relative to control, feature 164.0449@0.7694838: 1.1
  Mean concentration relative to control, feature 202.1024@5.0303197 (C8H14N2O4): 1.1
  Mean concentration relative to control, feature 203.1162@0.5130696: 1.1
  Mean concentration relative to control, feature 213.2458@7.4887733: 1
  Mean concentration relative to control, feature 215.047@1.6260729 (C5H14NO6P): 1.0
  Mean concentration relative to control, feature 226.0721@1.9460537: 1
  Mean concentration relative to control, feature 231.0174@1.6241412: 1
  Mean concentration relative to control, feature 233.1265@2.535991: 1.1
  Mean concentration relative to control, feature 250.1317@2.1334834: 1.1
  Mean concentration relative to control, feature 260.0508@0.69984084: 0.6**
  Mean concentration relative to control, feature 276.0173@1.6283482: 1
  Mean concentration relative to control, feature 278.0939@1.3354088: 1
  Mean concentration relative to control, feature 293.0903@1.5739433: 1
  Mean concentration relative to control, feature 307.2147@7.5065937 (C18H29NO3): 1.3**
  Mean concentration relative to control, feature 310.178@7.5343466: 1
  Mean concentration relative to control, feature 339.3861@9.528681: 1.4*
  Mean concentration relative to control, feature 342.2883@7.526812: 0.9**
  Mean concentration relative to control, feature 348.0675@1.5761927: 1
  Mean concentration relative to control, feature 355.9454@0.68034226: 1
  Mean concentration relative to control, feature 362.1467@0.8461036: 1.1
  Mean concentration relative to control, feature 366.1431@1.4228548: 1
  Mean concentration relative to control, feature 373.296@9.044806: 1
  Mean concentration relative to control, feature 375.3108@8.995564: 1
  Mean concentration relative to control, feature 389.2686@9.046645: 1
  Mean concentration relative to control, feature 407.0999@1.585909: 1
  Mean concentration relative to control, feature 412.135@2.4779084 (C17H24N4O6S): 1
  Mean concentration relative to control, feature 444.3607@10.33052: 0.9
  Mean concentration relative to control, feature 471.9819@0.685074: 1
  Mean concentration relative to control, feature 489.1508@8.562614: 0.8*
  Mean concentration relative to control, feature 509.1184@2.4798179: 1
  Mean concentration relative to control, feature 525.2855@8.361063: 1.1
  Mean concentration relative to control, feature 545.2492@8.463657: 1.1
  Mean concentration relative to control, feature 558.4095@9.459733: 1.2
  Mean concentration relative to control, feature 565.1902@0.7699907: 1.1
  Mean concentration relative to control, feature 577.2747@9.25652: 1
  Mean concentration relative to control, feature 581.1643@0.77029324: 1.1
  Mean concentration relative to control, feature 634.2403@1.9467853: 1
  Mean concentration relative to control, feature 644.1614@0.7647065: 1.1
